Assay results reported in patent US20150175585A1, “FUSED QUINONIC COMPOUNDS” (CENTRO ATLANTICO DEL MEDICAMENTO S.A (CEAMED, S.A.), priority 2012, published 2015).

System: STAT5
Experiment: STAT5 phosphorylation western blot assay
Assay type: cell-based, human
Conditions: 10 microM, HEL or K562 cells (table does not say which)

In the case of `N#Cc1ccc(C2C3=C(CCCC3=O)OC3=C2C(=O)c2ccccc2C3=O)cc1` (stereo not shown) [Compound 4, 4-(1,6,11-trioxo-2,3,4,6,11,12-hexahydro-1H-benzo[b]xanthen-12-yl)benzonitrile], the “Activity (inhibition of STAT5 phosphorylation)” value was “+++ (+++represents an inhibition at 10 microM > 75%)”.
